Article PMC5652693, “Coupling to a cancer-selective heparan-sulfate-targeted branched peptide can by-pass breast cancer cell resistance to methotrexate” (Oncotarget, 2017)
Entries after “also recorded” stand apart in the source; their conditions may differ.

Key:
[1] = tested on: orthotopic model of breast cancer; design: method as in PMID 26626158; conditions: orthotopic model of breast cancer in mice, identical experimental conditions for conjugate and free drug; cited from earlier work
From the text: In previous studies we investigated the cancer selectivity of tetra-branched peptides containing the sequence of human neurotensin, which we named NT4. We developed theranostic molecules for tumor imaging or therapy by coupling NT4 to different functional units or liposomes.

[2] = tested on: MCF-7 human breast adenocarcinoma cells; experiment: Cytotoxicity (MTT growth inhibition) in MTX-sensitive MCF-7 cells; format: cell-based; conditions: MCF7, MCF-7, 5 × 10^3 cells per well, 6 days at 37°C, twice in triplicate (Figure 6: mean of six experiments ± SD)
Protocol: (§1) MCF-7 human breast adenocarcinoma, MDA-MB 231 human breast adenocarcinoma, T-24 human bladder carcinoma, PANC-1 human pancreatic carcinoma, HT29 human colon adenocarcinoma, A375 human melanoma, HT-1376 human bladder carcinoma and OVCAR-3 human ovarian carcinoma cells were grown in their recommended media supplemented with 10% fetal calf serum, 200 μg/ml glutamine, 100 μg/ml streptomycin, 60 μg/ml penicillin, and maintained at 37°C, 5% CO2. MDA-MB 231 was maintained at 37°C without CO2. Cell lines were purchased from ATCC.
(§2) MCF-7 and MDA-MB 231 cells were plated at a density of 5 × 10^3 per well in 96-well microplates. […] Cell growth was analyzed after 6 days of incubation at 37°C. Growth inhibition was assessed by 3-(4,5-dimethylthiazol-2-yl)-2,5-diphenyltetrazolium bromide (MTT). Cytotoxicity of drug-conjugated NT4 was compared with that of the corresponding free drugs. The experiment was performed twice in triplicate. EC50 values were calculated by non-linear regression analysis using Graph Pad Prism 5.03 software.

[3] = tested on: OVCAR-3 human ovarian carcinoma cells; experiment: MTX cytotoxicity screening, OVCAR-3; format: cell-based
Protocol: as §1
as §2, with “software. Values from untreated controls gave 100% cell viability.” for “software.”

[4] = tested on: A375 human melanoma cells; experiment: MTX cytotoxicity screening, A375; format: cell-based; conditions: A-375
Protocol: as §1
as §2, with “software. Values from untreated controls gave 100% cell viability.” for “software.”

[5] = tested on: HT29 human colon adenocarcinoma cells; experiment: MTX cytotoxicity screening, HT29; format: cell-based; conditions: HT-29
Protocol: as §1
as §2, with “software. Values from untreated controls gave 100% cell viability.” for “software.”

MCF-7 cells = experiment: Cytotoxicity with and without heparin, MCF-7; format: cell-based, human; conditions: MCF-7, 610 pM to 10 μM compound in the presence of 1 μM heparin, 6 days at 37°C, MTT
Protocol: as §2

[6] = tested on: T-24 human bladder carcinoma cells; experiment: MTX cytotoxicity screening, T-24; format: cell-based
Protocol: as §1
as §2, with “software. Values from untreated controls gave 100% cell viability.” for “software.”

[7] = tested on: HT-1376 human bladder carcinoma cells; experiment: MTX cytotoxicity screening, HT-1376; format: cell-based
Protocol: as §1
as §2, with “software. Values from untreated controls gave 100% cell viability.” for “software.”

MDA-MB 231 cells = experiment: Cytotoxicity with and without heparin, MDA-MB 231; format: cell-based, human; conditions: MDA-MB 231, 610 pM to 10 μM compound in the presence of 1 μM heparin, 6 days at 37°C, MTT
Protocol: as §2

[8] = tested on: PANC-1 human pancreatic carcinoma cells; experiment: MTX cytotoxicity screening, PANC-1; format: cell-based
Protocol: as §1
as §2, with “software. Values from untreated controls gave 100% cell viability.” for “software.”

[9] = tested on: MDA-MB 231 human breast adenocarcinoma cells; experiment: Cytotoxicity (MTT growth inhibition) in MTX-resistant MDA-MB 231 cells; format: cell-based; conditions: MDA-MB 231, 5 × 10^3 cells per well, 6 days at 37°C, twice in triplicate (Figure 6: mean of six experiments ± SD)
Protocol: as §1, §2

[10] = tested on: NT4 binding to MCF-7 cells; experiment: Inhibition of NT4 binding by heparin or heparin binding proteins (flow cytometry), MCF-7; format: cell-based, human; conditions: 250 nM biotinylated NT4; heparin 20, 10 and 1 μg/ml or 1 μM Midkine or Apolipoprotein E4; 30 min, room temperature; Streptavidin-FITC
Protocol: (§3) All experiments were performed using 2 × 10^5 MCF-7 or MDA-MB 231 cells in 96 well U-bottom plates. All dilutions were performed in PBS, containing 5 mM EDTA and 0.5% BSA. 10,000 events were evaluated in a BD FACS Canto II or a BD FACS Calibur (Becton Dickinson, NJ USA). The results were analyzed by FCS Express 6 Flow cytometry software.
(§4) Inhibition of NT4 binding by heparin was carried out incubating cells with 250 nM biotinylated NT4 and various concentrations (20 μg/ml, 10 μg/ml and 1 μg/ml) of heparin for 30 min at room temperature. Inhibition of NT4 binding by heparin binding proteins was carried out incubating cells with 250 nM biotinylated NT4 and 1 μM Midkine or Apolipoprotein E4 for 30 min at room temperature. Cells were finally incubated with 1 μg/ml Streptavidin-FITC.

[11] = tested on: NT4 binding to MDA-MB 231 cells; experiment: Inhibition of NT4 binding by heparin or heparin binding proteins (flow cytometry), MDA-MB 231; format: cell-based, human; conditions: 250 nM biotinylated NT4; heparin 20, 10 and 1 μg/ml or 1 μM Midkine or Apolipoprotein E4; 30 min, room temperature; Streptavidin-FITC
Protocol: as §3, §4

[12] = tested on: MCF-7 and MDA-MB 231 cells; experiment: Transporter-mediated efflux of Rho 123 by flow cytometry; format: cell-based, human; conditions: 1 μM Rho 123 for 10 minutes, washed, fluorescence monitored 0-120 minutes by flow cytometry
Protocol: as §3
To analyze active cell drug export mechanisms, MCF-7 and MDA-MB 231 cells were exposed to 1 μM Rho 123 for 10 minutes, then washed twice with PBS-5 mM EDTA-[…] to remove excess of Rho 123, and fluorescence was monitored immediately (T0) and after 10, 20, 30, 45, 60, 90 and 120 minutes. Each step was followed by three washes in PBS-5 mM EDTA-0.5% BSA. P values were calculated using two-tailed Student's t-test (99% confidence interval) using Graph Pad Prism 5.03 software.

## CC(=O)O[C@H]1C(=O)[C@@]2(C)[C@H]([C@H](OC(=O)c3ccccc3)[C@]3(O)C[C@H](OC(=O)[C@H](O)[C@@H](NC(=O)c4ccccc4)c4ccccc4)C(C)=C1C3(C)C)[C@]1(OC(C)=O)CO[C@@H]1C[C@@H]2O [paclitaxel]
[1]
  tumor regression: not achieved

## CN(Cc1cnc2nc(N)nc(N)c2n1)c1ccc(C(=O)N[C@@H](CCC(=O)O)C(=O)O)cc1 [MTX, methotrexate]
[2]
  EC50: 25.8 nM
[3]
  EC50: 89.5 nM
[4]
  EC50: 33.7 nM
[5]
  EC50: 60.9 nM
MCF-7 cells
  effect of heparin on cytotoxicity: did not affect
[6]
  EC50: 80.7 nM
[7]
  EC50: 171 nM
MDA-MB 231 cells
  effect of heparin on cytotoxicity: did not affect
[8]
  EC50: 23.4 nM
[9]
  EC50: 506 nM

## Apolipoprotein E4: heparin binding protein
[10]
  inhibition of NT4 binding to MCF-7 cells: inhibited
[11]
  inhibition of NT4 binding to MDA-MB 231 cells: inhibited

## COC(=O)c1ccccc1-c1c2ccc(=N)cc-2oc2cc(N)ccc12 [Rho 123, Rhodamine 123]
[12]
  drug efflux (Rho 123 signal decrease) compared between cell lines: comparable in the two cell lines

## heparin
[10]
  inhibition of NT4 binding to MCF-7 cells: inhibited; also recorded: abolished
[11]
  inhibition of NT4 binding to MDA-MB 231 cells: inhibited; also recorded: abolished

B1: Midkine: heparin binding protein (protein, UniProt P21741 21-143, looked up)
Midkine: VAKKKDKVKKGGPGSECAEWAWGPCTPSSKDCGVGFREGTCGAQTQRIRCRVPCNWKKEFGADCKYKFENWGACDGGTGTKVRQGTLKKARYNAQCQETIRVTKPCTPKTKAKAKAKKGKGKD
[10]
  inhibition of NT4 binding to MCF-7 cells: inhibited
[11]
  inhibition of NT4 binding to MDA-MB 231 cells: inhibited
